Source: US10280163B2 (BeiGene, Ltd., priority 2015, dated 2019)
Like-named read-outs stand apart in the source and are kept apart here.

Tests used:
[1] = molecular target: T1, Recombinant TDO (Homo sapiens, UniProt P48775); assay: TDO enzymatic assay; type: biochemical; details: 100 nM TDO, 0.5 mM L-tryptophan, read-out: Enzyme IC50 (nM) TDO
T1 construct: His tag (C); made in house; host or cells: E. coli
Experimental: Recombinant TDO was overexpressed and purified from E. coli cells with a C-terminal His tag. TDO enzymatic assay was performed using the same methodology as IDO1 enzymatic assay except that 100 nM TDO and 0.5 mM L-tryptophan (Km concentration) were used in the TDO assay.

[2] = molecular target: T2, cellular IDO1 in HeLa cells (Homo sapiens, UniProt P14902); assay: HeLa cell-based IDO1 Kyn (kynurenine) production assay; details: IFN-γ 100 ng/mL, 48 hours
T2 construct: endogenous in cells; host or cells: HeLa cells (American Type Tissue Culture Collection), induced with human recombinant IFN-γ
Summary of the method: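 IFN-γ-induced HeLa cells (100 ng/mL) in phenol red-free DMEM with 0.4 mM L-Trp, compounds added together with IFN-γ, 48 h at 37 °C. Supernatant Kyn read at 480 nm after TCA precipitation and 4-(dimethylamino)benzaldehyde reaction. IC50 from four-parameter logistic fit.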

[3] = molecular target: T3, Recombinant IDO1 (Homo sapiens, UniProt P14902); assay: IDO1 enzymatic assay; type: biochemical; details: 50 nM IDO1, 1.3 mM D-tryptophan, read-out: Enzyme IC50 (nM) IDO1
T3 construct: His tag (N); made in house; host or cells: E. coli
Summary of the method: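 N-terminally His-tagged enzyme from E. coli (50 nM) was incubated with compound, 1.3 mM D-tryptophan, 5 mM ascorbate, 6.25 μM methylene blue and 0.4 mg/mL catalase in 50 mM potassium phosphate pH 7.5, 0.1% BSA for 1.5 h at 24° C. N′-formylkynurenine formation was followed at 321 nm for 1 h; IC50 from rate slopes.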

[4] = Table 1, 5-substituted imidazo[1,5-a]pyridines
[5] = Table 2, 8-substituted imidazo[1,5-a]pyridines

T2 sequence (P14902 whole entry): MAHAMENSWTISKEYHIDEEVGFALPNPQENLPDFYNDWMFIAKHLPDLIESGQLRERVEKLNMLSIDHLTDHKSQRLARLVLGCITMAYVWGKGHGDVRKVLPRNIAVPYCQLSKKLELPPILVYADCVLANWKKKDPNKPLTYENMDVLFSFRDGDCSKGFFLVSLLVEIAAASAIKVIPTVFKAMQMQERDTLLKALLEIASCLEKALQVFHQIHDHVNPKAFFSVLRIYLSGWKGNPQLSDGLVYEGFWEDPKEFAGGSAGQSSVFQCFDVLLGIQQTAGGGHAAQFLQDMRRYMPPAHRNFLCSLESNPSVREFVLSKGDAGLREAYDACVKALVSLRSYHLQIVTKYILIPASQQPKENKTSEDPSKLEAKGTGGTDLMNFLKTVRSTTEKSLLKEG
T3 sequence (P14902 whole entry): as above
T1 sequence (P48775 whole entry): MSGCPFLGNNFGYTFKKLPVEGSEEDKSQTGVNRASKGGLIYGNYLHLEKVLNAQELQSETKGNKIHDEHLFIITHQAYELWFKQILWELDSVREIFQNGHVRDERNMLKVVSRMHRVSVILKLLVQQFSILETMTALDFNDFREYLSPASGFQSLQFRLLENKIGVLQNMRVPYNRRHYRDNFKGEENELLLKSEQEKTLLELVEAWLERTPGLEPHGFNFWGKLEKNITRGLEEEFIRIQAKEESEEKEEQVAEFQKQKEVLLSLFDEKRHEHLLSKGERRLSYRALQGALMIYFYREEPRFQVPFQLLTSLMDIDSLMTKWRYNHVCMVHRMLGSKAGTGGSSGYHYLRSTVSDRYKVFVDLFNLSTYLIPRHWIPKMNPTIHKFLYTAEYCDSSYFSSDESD

Structure (SMILES) | IC50 [1, 4] | EC50 [2, 4] | IC50 [3, 4] | IC50 [1, 5] | EC50 [2, 5] | IC50 [3, 5]
OC(CC1CCCCC1)c1c(Br)ccc2cncn12 (single isomer, unassigned) [Example A119a] | 14000 nM | 66 nM | 14 nM | – | – | –
OC(CC1CCCCC1)c1c(Br)ccc2cncn12 (single isomer, unassigned) [Example A119b] | 38000 nM | 9430 nM | 1300 nM | – | – | –
OC(CC1CCCCC1)c1c(I)ccc2cncn12 (single isomer, unassigned) [Example A124a] | 8800 nM | 92 nM | 9 nM | – | – | –
OC(CC1CCCCC1)c1c(I)ccc2cncn12 (single isomer, unassigned) [Example A124b] | 95000 nM | > 10000 nM | 1100 nM | – | – | –
OC(c1c(I)ccc2cncn12)C1CCCCC1 (single isomer, unassigned) [Example A125a] | 4500 nM | 138 nM | 15 nM | – | – | –
OC(c1c(I)ccc2cncn12)C1CCCCC1 (single isomer, unassigned) [Example A125b] | 46000 nM | > 10000 nM | 12000 nM | – | – | –
OC(c1c(C2CC2)ccc2cncn12)C1CCCCC1 (single isomer, unassigned) [Example A126a] | 14000 nM | 156 nM | 36 nM | – | – | –
OC(c1c(C2CC2)ccc2cncn12)C1CCCCC1 (single isomer, unassigned) [Example A126b] | 74000 nM | > 10000 nM | 6800 nM | – | – | –
OC(CC1CCCCC1)c1c(C(F)(F)F)ccc2cncn12 (single isomer, unassigned) [Example A127a] | 15000 nM | 169 nM | 17 nM | – | – | –
OC(CC1CCCCC1)c1c(C(F)(F)F)ccc2cncn12 (single isomer, unassigned) [Example A127b] | 25000 nM | 8010 nM | 3200 nM | – | – | –
OC(c1c(C2CC2)ccc2cncn12)C1CCCCC1 (single isomer, unassigned) [Example A129a] | 1700 nM | 38 nM | 14 nM | – | – | –
OC(c1c(C2CC2)ccc2cncn12)C1CCCCC1 (single isomer, unassigned) [Example A129b] | 37000 nM | > 10000 nM | 21000 nM | – | – | –
OC(c1c(Cl)c(Cl)cc2cncn12)C1CCCCC1 (single isomer, unassigned) [Example A143a] | 690 nM | 274 nM | 20 nM | – | – | –
OC(c1c(Cl)c(Cl)cc2cncn12)C1CCCCC1 (single isomer, unassigned) [Example A143b] | 14000 nM | 6100 nM | 3400 nM | – | – | –
OC(CC1CCCCC1)c1c(Cl)c(Cl)cc2cncn12 (single isomer, unassigned) [Example A144a] | 23000 nM | > 10000 nM | > 100000 nM | – | – | –
OC(CC1CCCCC1)c1c(Cl)c(Cl)cc2cncn12 (single isomer, unassigned) [Example A144b] | 240 nM | 291 nM | 14 nM | – | – | –
Cc1ccn2cncc2c1C(O)C1CCCCC1 (single isomer, unassigned) [Example B102a] | – | – | – | 150 nM | 995 nM | 15 nM
Cc1ccn2cncc2c1C(O)C1CCCCC1 (single isomer, unassigned) [Example B102b] | – | – | – | 31000 nM | > 10000 nM | 3100 nM
OC(c1c(C2CC2)ccn2cncc12)C1CCCCC1 (single isomer, unassigned) [Example B107a] | – | – | – | 1300 nM | 136 nM | 47 nM
O[C@@H](c1c(C2CC2)ccn2cncc12)C1CCCCC1 (single isomer, unassigned) [Example B107b] | – | – | – | 11000 nM | > 10000 nM | 21000 nM
OC(c1cccc2cncn12)C1CCCCC1 (stereo not drawn) [Example A001, Cyclohexyl(imidazo[1,5-a]pyridin-5-yl)methanol] | 260 nM | > 10000 nM | 150 nM | – | – | –

Structure (SMILES) | IC50 [1, 4] | EC50 [2, 4] | IC50 [3, 4] | IC50 [1, 5] | EC50 [2, 5] | IC50 [3, 5]
OC(c1cccc2cncn12)C1CCCCCC1 (stereo not drawn) [Example A009, Cycloheptyl(imidazo[1,5-a]pyridin-5-yl)methanol] | 260 nM | > 10000 nM | 110 nM | – | – | –
c1cc(CC2CCCCC2)n2cncc2c1 [Example A015, 5-(cyclohexylmethyl)imidazo[1,5-a]pyridine] | 260 nM | > 10000 nM | 540 nM | – | – | –
FC(c1cc(Cl)cc2cncn12)C1CCC(F)(F)CC1 (stereo not drawn) [Example A020, 7-chloro-5-((4,4-difluorocyclohexyl)fluoromethyl)imidazo[1,5-a]pyridine] | 350 nM | > 10000 nM | 8900 nM | – | – | –
OC(c1ccc(F)c2cncn12)C1CCCCC1 (stereo not drawn) [Example A022, cyclohexyl(8-fluoroimidazo[1,5-a]pyridin-5-yl)methanol] | 570 nM | > 10000 nM | 1200 nM | – | – | –
Clc1cc(CC2CCCCC2)n2cncc2c1 [Example A026, 7-chloro-5-(cyclohexylmethyl)imidazo[1,5-a]pyridine] | 73 nM | > 10000 nM | 107 nM | – | – | –
OC(c1cc(Cl)cc2cncn12)C1CCCCC1 (stereo not drawn) [Example A101, (7-chloroimidazo[1,5-a]pyridin-5-yl)(cyclohexyl)methanol] | 68 nM | 1360 nM | 29 nM | – | – | –
O[C@H](c1cc(Cl)cc2cncn12)C1CCCCC1 [Example A101a, (S)-(7-chloroimidazo[1,5-a]pyridin-5-yl)(cyclohexyl)methanol] | 29 nM | 326 nM | 9.6 nM | – | – | –
OC(CC1CCCCC1)c1cc(Cl)cc2cncn12 (stereo not drawn) [Example A102, 1-(7-chloroimidazo[1,5-a]pyridin-5-yl)-2-cyclohexylethan-1-ol] | 300 nM | 1760 nM | 67 nM | – | – | –
OC(c1cc(Cl)cc2cncn12)C1CCCC1 (stereo not drawn) [Example A103, (7-chloroimidazo[1,5-a]pyridin-5-yl)(cyclopentyl)methanol] | 22 nM | 1510 nM | 22 nM | – | – | –
CC1CCC(C(O)c2cc(Cl)cc3cncn23)CC1 (stereo not drawn) [Example A104, (7-chloroimidazo[1,5-a]pyridin-5-yl)(4-methylcyclohexyl)methanol] | 270 nM | 2180 nM | 29 nM | – | – | –
O=C(NC1CCCC(C(O)c2cc(Cl)cc3cncn23)C1)c1cccc(Cl)c1 (stereo not drawn) [Example A105, 3-chloro-N-(3-((7-chloroimidazo[1,5-a]pyridin-5-yl)(hydroxy)methyl)cyclohexyl)benzamide] | 1600 nM | 1690 nM | 127 nM | – | – | –
OC(c1cc(I)cc2cncn12)C1CCCCC1 (stereo not drawn) [Example A107, cyclohexyl(7-iodoimidazo[1,5-a]pyridin-5-yl)methanol 2,2,2-trifluoroacetate] | 110 nM | 968 nM | 26 nM | – | – | –
OC(c1cc(C2CC2)cc2cncn12)C1CCCCC1 (stereo not drawn) [Example A108, cyclohexyl(7-cyclopropylimidazo[1,5-a]pyridin-5-yl)methanol 2,2,2-trifluoroacetate] | 150 nM | 4440 nM | 36 nM | – | – | –
OC(c1cc(C(F)(F)F)cc2cncn12)C1CCCCC1 (stereo not drawn) [Example A109, cyclohexyl(7-(trifluoromethyl)imidazo[1,5-a]pyridin-5-yl)methanol] | 110 nM | 1540 nM | 49 nM | – | – | –
OC(c1cc(C(F)(F)F)cc2cncn12)C1CCCC1 (stereo not drawn) [Example A110, Cyclopentyl(7-(trifluoromethyl)imidazo[1,5-a]pyridin-5-yl)methanol] | 120 nM | 2090 nM | 66 nM | – | – | –
OC(c1cc(Br)cc2cncn12)C1CCCCC1 (stereo not drawn) [Example A111, (7-bromoimidazo[1,5-a]pyridin-5-yl)(cyclohexyl)methanol] | 63 nM | 962 nM | 25 nM | – | – | –
OC(c1cc(Br)cc2cncn12)C1CCCC1 (stereo not drawn) [Example A112, (7-bromoimidazo[1,5-a]pyridin-5-yl)(cyclopentyl)methanol] | 48 nM | 1040 nM | 24 nM | – | – | –
OC(CCC1CCCCC1)c1cc(Cl)cc2cncn12 (stereo not drawn) [Example A113, 1-(7-chloroimidazo[1,5-a]pyridin-5-yl)-3-cyclohexylpropan-1-ol] | 1100 nM | 3220 nM | 26 nM | – | – | –
OC(c1cc(C(F)(F)F)cc2cncn12)C1CCCCCC1 (stereo not drawn) [Example A115, cycloheptyl(7-(trifluoromethyl)imidazo[1,5-a]pyridin-5-yl)methanol] | 320 nM | 3160 nM | 180 nM | – | – | –
OC(c1c(Cl)ccc2cncn12)C1CCCCC1 (stereo not drawn) [Example A116, (6-chloroimidazo[1,5-a]pyridin-5-yl)(cyclohexyl)methanol] | 270 nM | 231 nM | 7.5 nM | – | – | –
